Data from US20110251379A1, “COMPOUNDS USEFUL FOR TREATING NEURODEGENERATIVE DISORDERS” (Satori Pharmaceuticals, Inc., priority 2010, published 2011).
Where two headings read alike, the source gives them in different places.

Experiments:
Format in all cases: cell-based
Aβ-38 = assay: MSD Human (6E10) Ab 3-PLEX elisa, conditioned media of 2B7 cells: Aβ-38; details: Homo sapiens, Aβ-38 (superscript a)
Protocol: (§1) Assays were conducted to determine the ability of a Compound of Formula I to modulate […], and Aβ-38.
(§2) Plates with capture antibodies were blocked for 1-2 hours at room temperature with 150 μL of the manufactures blocking reagent.
(§3) Conditioned Media: • Cultured 2B7 cells in 96 well plate with 250 uL of media per well until confluent; • Prepared serial dilutions of compounds in DMSO at 100× the final desired concentration; • Washed wells with 2B7 cells 1× with 250 uL of media; • Diluted DMSO stocks 1:100 into media: • Added 250 μL of media containing compounds (1% DMSO) to wells with 2B7 cells for 5 hours at 37° C.
(§4) Elisa Sample Prep: • Diluted conditioned media: 1 part media with 1% DMSO and 1 part blocking buffer; • 150 μL of the 250 μL of conditioned media were used.
(§5) […] CURVE SAMPLE PREP: Prepared per manufacturer's protocol (see above) • Seven point standard curve samples were prepared that contained Aβ-42, Aβ-40, and Aβ-38. The highest concentration of Aβ-42 and Aβ-3-38 was 3,000 pg/mL and the highest concentration of Aβ-40 was 10,000 pg/mL. Subsequent serial dilutions were 1:3 and the final composition of each sample was 1 part blocking buffer and 1 part cell medium containing 1% DMSO.
(§6) Overnight Sample Incubation: • Blocked plates are washed 5× with MSD wash buffer with a plate washer • 25 uL of detection antibody and blocker G reagent in MSD blocking solution is added • 25 uL of samples (1 part conditioned media containing 1% DMSO and 1 part MSD blocking buffer) are then added. • plates are incubated overnight at 4 degrees C. or 2 hours at room temp
(§7) Final Wash and Readout: • Wash wells 5× with MSD wash buffer • Added 150 μL 2×MSD read buffer • Read with MSD imager.
(§8) A-Beta peptide levels for each peptide are calculated from the standard curve using the MSD software provided with the MSD 2400 Imager. Percent vehicle values for each compound dosage were then calculated and fit to a 4 parameter curve generating IC50 values.

Aβ-40 = assay: MSD Human (6E10) Ab 3-PLEX elisa, conditioned media of 2B7 cells: Aβ-40; details: Homo sapiens; for IC50: Aβ-40 (superscript b); for inhibition at 20 µM: Aβ-40, 20 μM
Protocol: as §1, §2, §3, §4, §5, §6, §7, §8

Aβ-42 = assay: MSD Human (6E10) Ab 3-PLEX elisa, conditioned media of 2B7 cells: Aβ-42; details: Homo sapiens; for IC50: Aβ-42 (superscript c); for inhibition at 20 µM: Aβ-42, 20 μM
Protocol: as §1, §2, §3, §4, §5, §6, §7, §8

Structure (SMILES) | IC50 (Aβ-38; read-out: 50% reduction value) [µM] | IC50 (Aβ-38; read-out: IC50 range) [µM] | IC50 (Aβ-40; read-out: 50% reduction value) [µM] | IC50 (Aβ-40; read-out: IC50 range) [µM] | IC50 (Aβ-42; read-out: 50% reduction value) [µM] | IC50 (Aβ-42; read-out: IC50 range) [µM] | inhibition at 20 µM (Aβ-42) [%] | inhibition at 20 µM (Aβ-40) [%]
CO[C@H](C(C)C)C1C[C@@H](C)[C@H]2C(O1)[C@H](O)[C@@]1(C)C3CC[C@H]4C(C)(C)[C@@H](O[C@H]5CNCCO5)CC[C@@]45C[C@@]35CC[C@]21C (stereo partly drawn) | 1 to 10 | 1 to 10 | 1 to 10 | 1 to 10 | 1 to 10 | 1 to 10 | – | –
CO[C@H](C(C)C)C1C[C@@H](C)[C@H]2C(O1)[C@H](O)[C@@]1(C)C3CC[C@H]4C(C)(C)[C@@H](O)CC[C@@]45C[C@@]35CC[C@]21C (stereo partly drawn) | 1 to 10 | – | > 10 | – | – | – | 25 to 75 | –
CNC(=O)O[C@H](C(C)C)C1C[C@@H](C)[C@H]2C(O1)[C@H](O)[C@@]1(C)C3CC[C@H]4C(C)(C)[C@@H](O[C@H]5CNCCO5)CC[C@@]45C[C@@]35CC[C@]21C (stereo partly drawn) | < 1 | – | 1 to 10 | > 10 | < 1 | < 1 | 25 to 75 | 25 to 75
C[C@@H]1CC([C@H](OC(=O)C2CCOCC2)C(C)(C)O)OC2[C@H]1[C@@]1(C)CC[C@@]34C[C@@]35CC[C@H](O)C(C)(C)[C@@H]5CCC4[C@]1(C)[C@H]2O (stereo partly drawn) | 1 to 10 | – | – | – | – | – | 25 to 75 | 25 to 75
C[C@@H]1C[C@H]([C@H](OC(N)=O)C(C)(C)O)O[C@H]2[C@H]1[C@@]1(C)CC[C@@]34C[C@@]35CC[C@H](O[C@H]3CN(C6COC6)CCO3)C(C)(C)[C@@H]5CCC4[C@]1(C)[C@H]2O (stereo partly drawn) | 1 to 10 | – | > 10 | – | – | – | 25 to 75 | –
CNC(=O)OC(C)(C)[C@@H](O)[C@H]1C[C@@H](C)[C@H]2[C@H](O1)[C@H](O)[C@@]1(C)C3CC[C@H]4C(C)(C)[C@@H](O)CC[C@@]45C[C@@]35CC[C@]21C (stereo partly drawn) | 1 to 10 | – | > 10 | – | – | – | 25 to 75 | –
C[C@@H]1CC(COC(=O)C(C)(C)C)OC2[C@H]1[C@@]1(C)CC[C@@]34C[C@@]35CC[C@H](O[C@H]3CN(C6COC6)CCO3)C(C)(C)[C@@H]5CCC4[C@]1(C)[C@H]2O (stereo partly drawn) | 1 to 10 | – | > 10 | – | > 10 | – | – | –
C[C@@H]1CC(COC(=O)C2CC2)OC2[C@H]1[C@@]1(C)CC[C@@]34C[C@@]35CC[C@H](O[C@H]3CN(C6COC6)CCO3)C(C)(C)[C@@H]5CCC4[C@]1(C)[C@H]2O (stereo partly drawn) | 1 to 10 | – | > 10 | – | – | – | < 25 | –
CC(C)CC(=O)OCC1C[C@@H](C)[C@H]2C(O1)[C@H](O)[C@@]1(C)C3CC[C@H]4C(C)(C)[C@@H](O[C@H]5CN(C6COC6)CCO5)CC[C@@]45C[C@@]35CC[C@]21C (stereo partly drawn) | 1 to 10 | – | – | – | – | – | 25 to 75 | 25 to 75
CC(C)[C@@H](OC(N)=O)C1C[C@@H](C)[C@H]2C(O1)[C@H](O)[C@@]1(C)[C@@H]3CC[C@H]4C(C)(C)C(O[C@H]5CNCCO5)CC[C@@]45C[C@@]35CC[C@]21C (stereo partly drawn) | < 1 | – | 1 to 10 | 1 to 10 | < 1 | < 1 | – | –
CCO[C@H](C(C)C)C1C[C@@H](C)[C@H]2C(O1)[C@H](O)[C@@]1(C)[C@@H]3CC[C@H]4C(C)(C)C(O[C@H]5CNCCO5)CC[C@@]45C[C@@]35CC[C@]21C (stereo partly drawn) | 1 to 10 | – | 1 to 10 | 1 to 10 | 1 to 10 | 1 to 10 | – | –
CCO[C@H](C(C)C)C1C[C@@H](C)[C@H]2C(O1)[C@H](O)[C@@]1(C)[C@@H]3CC[C@H]4C(C)(C)C(O)CC[C@@]45C[C@@]35CC[C@]21C (stereo partly drawn) | 1 to 10 | – | 1 to 10 | – | 1 to 10 | – | – | –
CC(C)[C@@H](OC(=O)C1CCC1)C1C[C@@H](C)[C@H]2C(O1)[C@H](O)[C@@]1(C)[C@@H]3CC[C@H]4C(C)(C)C(O)CC[C@@]45C[C@@]35CC[C@]21C (stereo partly drawn) | < 1 | 1 to 10 | 1 to 10 | – | < 1 | – | – | –
CC(C)CC(=O)O[C@@H](C1C[C@@H](C)[C@H]2C(O1)[C@H](O)[C@@]1(C)[C@@H]3CC[C@H]4C(C)(C)C(O)CC[C@@]45C[C@@]35CC[C@]21C)C(C)(C)O (stereo partly drawn) | < 1 | < 1 | 1 to 10 | – | < 1 | – | – | –
CC(=O)OC[C@@]1(C)C[C@@H](C)[C@H]2C(O1)[C@H](O)[C@@]1(C)C3CC[C@H]4C(C)(C)C(O)CC[C@@]45C[C@@]35CC[C@]21C (stereo partly drawn) | 1 to 10 | – | 1 to 10 | – | > 10 | – | – | –
CC(=O)O[C@@H](C1C[C@@H](C)C2C(O1)[C@H](O)[C@@]1(C)[C@@H]3CC[C@H]4C(C)(C)C(O)CC[C@@]45C[C@@]35CC[C@]21C)C(C)(C)C (stereo partly drawn) | 1 to 10 | – | – | – | < 1 | – | – | 25 to 75
CC(C)[C@@H](OC(=O)N1CCC1)C1C[C@@H](C)[C@H]2C(O1)[C@H](O)[C@@]1(C)C3CC[C@H]4C(C)(C)C(OC(=O)N5CC(C(=O)O)C5)CC[C@@]45C[C@@]35CC[C@]21C (stereo partly drawn) | < 1 | – | 1 to 10 | – | < 1 | – | – | –
CC(C)[C@@H](OC(=O)N1CCC1)C1C[C@@H](C)[C@H]2C(O1)[C@H](O)[C@@]1(C)C3CC[C@H]4C(C)(C)C(OC(=O)NC5CNC5)CC[C@@]45C[C@@]35CC[C@]21C (stereo partly drawn) | < 1 | < 1 | 1 to 10 | 1 to 10 | < 1 | < 1 | – | –
CCO[C@@H]([C@H]1C[C@@H](C)[C@H]2[C@H](O1)[C@H](O)[C@@]1(C)[C@@H]3CC[C@H]4C(C)(C)[C@@H](OC(=O)N5CC(C(=O)O)C5)CC[C@@]45C[C@@]35CC[C@]21C)C(C)(C)O | < 1 | < 1 | 1 to 10 | 1 to 10 | < 1 | < 1 | – | –
CC(C)O[C@@H](C1C[C@@H](C)[C@H]2C(O1)[C@H](O)[C@@]1(C)C3CC[C@H]4C(C)(C)C(O[C@H]5CN(C6COC6)CCO5)CC[C@@]45C[C@@]35CC[C@]21C)C(C)(C)O (stereo partly drawn) | < 1 | < 1 | 1 to 10 | 1 to 10 | < 1 | < 1 | – | –
CCO[C@@H](C1C[C@@H](C)[C@H]2C(O1)[C@H](O)[C@@]1(C)C3CC[C@H]4C(C)(C)C(O[C@H]5CN(C6CCOCC6)CCO5)CC[C@@]45C[C@@]35CC[C@]21C)C(C)(C)O (stereo partly drawn) | < 1 | < 1 | 1 to 10 | 1 to 10 | < 1 | < 1 | – | –
CCO[C@@H](C1C[C@@H](C)[C@H]2C(O1)[C@H](O)[C@@]1(C)C3CC[C@H]4C(C)(C)C(O[C@H]5CN(C6CCOC6)CCO5)CC[C@@]45C[C@@]35CC[C@]21C)C(C)(C)O (stereo partly drawn) | < 1 | – | 1 to 10 | – | < 1 | < 1 | – | –
CCO[C@@H](C1C[C@@H](C)[C@H]2C(O1)[C@H](O)[C@@]1(C)C3CC[C@H]4C(C)(C)C(OC(N)=O)CC[C@@]45C[C@@]35CC[C@]21C)C(C)(C)O (stereo partly drawn) | < 1 | – | 1 to 10 | – | < 1 | < 1 | – | –
CCO[C@@H](C1C[C@@H](C)[C@H]2C(O1)[C@H](O)[C@@]1(C)C3CC[C@H]4C(C)(C)C(OC(=O)NC)CC[C@@]45C[C@@]35CC[C@]21C)C(C)(C)O (stereo partly drawn) | < 1 | – | – | – | < 1 | – | – | > 75
